The test system of data set [1] is M. tuberculosis Erdman or H37Rv vs VERO or HepG2 cell lines. Briefly: Selectivity Index (IC50 mammalian cells / MIC bacteria). On the set-up: species or system Mycobacterium tuberculosis. Conditions: for Selectivity Index (SI) Erd/VERO: IC50 VERO / MIC Erdman; for Selectivity Index (SI) Erd/HepG2: IC50 HepG2 / MIC Erdman; for Selectivity Index (SI) H37Rv/HepG2: IC50 HepG2 / MIC H37Rv; for Selectivity Index (SI) H37Rv/VERO: IC50 VERO / MIC H37Rv.

Data set [2] can be described thus: Liposome loading: encapsulated drug-to-lipid ratio and encapsulation efficiency. The class given is physicochemical. The procedure:
1. The lipid components (phospholipid (PhL), cholesterol, and optionally—a PEG-lipid derivative and/or a lipid fluorescent label were combined in an amount of 100% ethanol equal to one-tenth of a volume (V) calculated to obtain lipid suspension with about 60 mM phospholipid and stirred at the temperature of 65-68° C. until complete dissolution of the lipids.
2. The ethanolic lipid solution was combined with volume V of the trapping agent solution (0.25-0.5 M ammonium sulfate or 1 N triethylammonium sucrose octasulfate) upon stirring at 65-68° C. until a uniform suspension was obtained.
3. The lipid suspension was extruded at least three times through a stack of track-etched polycarbonate membranes, typically, two or four membranes with the nominal pore size of 100 nm and one with the nominal pore size 200 nm (Whatman Nuclepore, USA), using a thermobarrel extruder (Lipex, Canada) at 65-68° C., at the pressure of 400-450 psi. When two 100-nm membranes were used in a 100-ml Lipex extruder, the extrusion pressure was typically 260-300 psi. The resulting liposomes have Z-average particle size (diameter) Xz between about 80 and about 130 nm, and PDI less than 0.1.
5. An aliquot of the extruded, filtered liposome suspension so made was chromatographed on a gravity-fed Sepharose CL-4B size exclusion column (eluent-Type 1 water), to purify the liposomes from extraliposomal trapping agent. The purified liposomes were collected near the void volume fraction of the column. For a scale-up studies, this step was performed using a tangential flow filtration (TFF) on a hollow fiber cartridge (Repligen Spectrum MicroKros PS or mPES membrane with MWCO of 500 KDa) effecting 8-10 volume exchanges (or until the conductivity of the liposome suspension dropped below 200 μS/cm) with Type 1 or USP “Water for injection” endotoxin-free water.
6. The lipid concentration in a purified extruded liposome preparation was determined using HPLC with UV detection, by measuring the concentration of cholesterol and correcting for the known phospholipid/cholesterol molar ratio. Alternatively, a spectrophotometric blue phosphomolybdate method was used to directly quantify the phospholipid content.
7. The drug was dissolved in Type 1 or endotoxin-free pure water in the form of a hydrochloric acid salt (e.g., AKG-3 and AKG-5 were used as monohydrochloride, AKG-28 and AKG-29 were used as dihydrochloride) at the concentration of 5-20 mg/ml of the drug. To the drug prepared in free base form (e.g., AKG-16, AKG-38), an equivalent amount of HCl was added. If necessary, pH of the solution was brought between pH 2.5-5.5, using 1 N NaOH, HCL, or tris(hydroxymethyl)aminomethane (Tris)-base solution, and the solution was filtered through a 0.2-micron PES filter under positive pressure. When necessary, the drug concentration in the stock solution so made was verified by HPLC with UV detection at 305 nm.
8. Purified liposomes of step 5 and the drug stock solution were combined in the presence of an osmotic agent (typically dextrose) and water in the amounts necessary to provide a desired drug-to-phospholipid (DL) ratio, the drug concentration in the range 1.5-3.3 mg/ml, at the osmolality equal to the measured osmolality of the trapping agent solution of step 2. Optionally, a buffer at a desired pH (typically pH 4 to pH 7) was added. In some instances, the amount of added osmotic agent (e.g., dextrose at about 45 g/L) provided osmolality less that the measured osmolality of the trapping agent solution, and the loading was effected at 6-8 mg/ml of the drug.
9. The drug-liposome mixture was incubated with constant agitation at 65-68° C. for about 15-20 min and quickly chilled on ice. After 5-10 min, the mixture was allowed to reach ambient temperature an adjusted to 0.1M NaCl by adding a calculated amount of 3 M NaCl stock solution.
10. […] The liposome fractions were collected near the column void volume. […]

Another data set deals with M.tb H37Rv. The data set is described as follows: Broth microdilution MIC with Alamar blue endpoint (MABA), M.tb H37Rv. The class given is cell-based. Conditions: Mycobacterium tuberculosis, broth microdilution, MABA/OD600, read-out: Mycobacterium tuberculosis MIC, H37Rv. On the technique in general: Dilution methods test growth across graded concentrations, often in twofold steps.

A further data set deals with M.tb Erdman. Briefly: Broth microdilution MIC with Alamar blue endpoint (MABA), M.tb Erdman. Type of data set: cell-based, Mycobacterium tuberculosis. Conditions: for MIC: Mycobacterium tuberculosis, ERDMAN, broth microdilution, MABA/OD600.
In data set [3] the test system is African green monkey kidney (Vero; ATCC #CCL81) cells. The data set is described as follows: In vitro cytotoxicity (PrestoBlue cell viability), Vero cells. Conditions: Chlorocebus sabaeus, 72 h, read-out: Cell viability IC50, VERO.
Protocol: (§1) Data is reported out as the full cell viability curve, as well as a calculation of the actual IC50 value for each compound.
(§2) Adherent cells were grown to ˜80% confluency. […] The cell density was determined using a hemocytometer.
(§3) These compounds were provided as sterile aqueous solutions of HCl salts with a concentration of 5 mg/ml. For making dilutions, each drug stock was warmed to room temperature, vortexed and was visually inspected for precipitation. If solid drug was present, the stock was heated on a 60° C. water bath and then allowed to cool to near room temperature. Based on the treatment concentrations, 20× working stocks were made by serial dilution.
(§4) At the end of the compound incubation period, replace the media in each well with 100 μl of 1× PrestoBlue Cell Viability Reagent (ThermoFisher Cat #A13261). Incubate the plate at 37° C. in a humidified incubator with 5% CO2 30 min to 2 h. […] Read fluorescence with 560 nm excitation and 590 nm emission using SpectraMax M5 plate reader (Molecular Devices). Correct background by subtracting the RFU of the control containing only the culture medium (background control well) from all sample readings. Calculate the percentage of cytotoxicity using the formula below:
(§5) The IC50 was determined using GraphPad Prism using the following formula:
The test system of data set [4] is human hepatocyte/liver (HepG2; ATCC #HB8065) cells. Briefly: In vitro cytotoxicity (PrestoBlue cell viability), HepG2 cells. As to conditions: HepG2, 72 h, read-out: Cell viability IC50, HepG2.
Protocol: as §1, §2, §3, §4, §5
Data set [5] has as its system mitochondrial protein synthesis vs H37Rv M. tuberculosis. The data set is described as follows: MPS selectivity index (MPS IC50 / MIC H37Rv).
[6] abbreviates: 1 N TEA-SOS, DL0 750-1500 g/mol PhL.

Consider eleven molecules from patent publication US20260083674A1, “OXAZOLIDINONE LIPOSOME COMPOSITIONS” (priority 2021, published 2026).

Values after ≈ are worked out from the molar mass of the structure shown. Bounds are passed on as bounds.

Consider `CN(C)CCCC(=O)OC[C@H]1CN(c2ccc(-c3ccc(-c4nnn(C)n4)nc3)c(F)c2)C(=O)O1` [AKG-5], for which the “Selectivity Index (SI) Erd/VERO” value in data set [1] is listed as 32.5. The “Maximum encapsulated drug payload” value in data set [2] (0.5 M AS, 0.5 mol % PEG) came out at 627 g/mol PhL. Further, the Drug loading efficiency in data set [2] (0.5 mol % PEG-DSG, 1N TEA-SOS, DL0 500 g/mol PhL (Example 8, no added buffer)) stood at 101.3; in data set [2] (0.5 mol % PEG-DSG, […] AS, DL0 250 g/mol PhL), 98.5; in data set [2] (0.5 mol % PEG-DSG, […] AS, DL0 500 g/mol PhL) it was 97.7; in data set [2] (5 mol % PEG-DSG, 1N TEA-SOS, DL0 500 g/mol PhL), 99.3. Also, the “loading efficiency at or near the maximum drug load” value in data set [2] (setting [6]) is no less than 96.0%. For the same molecule, the maximum drug load in data set [2] (setting [6]) was 982-1197 g/mol PhL.
For orientation: MIC means the least concentration at which growth counts as inhibited. With `CCN(CC)CCCNC[C@H]1CN(c2ccc(-c3ccc(-c4nnn(C)n4)nc3)c(F)c2)C(=O)O1` [AKG-8], the MIC in the data set on M.tb H37Rv and with M.tb Erdman was greater than 8 µg/mL in each case.
By IC50 is commonly meant the concentration needed to halve the response being measured. For the molecule `CCN(CC)CCNC[C@H]1CN(c2ccc(-c3ccc(-c4nnn(C)n4)nc3)c(F)c2)C(=O)O1` [AKG-9], the MIC in the data set on M.tb H37Rv was greater than 8 µg/mL. For the same molecule, the IC50 in data set [3] turned out to be 139 µg/mL (≈ 297 µM). Moreover, in data set [1], the “Selectivity Index (SI) Erd/HepG2” value is less than 3.5, the “Selectivity Index (SI) H37Rv/HepG2” value is recorded as 3.5, the “Selectivity Index (SI) Erd/VERO” value is less than 17.4 and the “Selectivity Index (SI) H37Rv/VERO” value is given as less than 17.4. Also, in data set [4], the IC50 is 28.1 µg/mL (≈ 60 µM). This molecule also returned an MIC in the data set on M.tb Erdman greater than 8 µg/mL.
Consider `CN(C)CCNc1ccc(-c2ccc(N3C[C@H](CO)OC3=O)cc2F)cn1` [AKG-12], for which the minimal inhibitory concentration (MIC) in the data set with M.tb H37Rv was 4 µg/mL (≈ 10.7 µM). The half-inhibitory concentration (IC50) in data set [3] stood at 89.1 µg/mL (≈ 238 µM). Further, in data set [1], the “Selectivity Index (SI) Erd/HepG2” value amounted to 16.9, the “Selectivity Index (SI) H37Rv/HepG2” value was determined as 16.9, the “Selectivity Index (SI) Erd/VERO” value was 22.3 and the “Selectivity Index (SI) H37Rv/VERO” value came out at 22.3. In addition, in data set [4], the half-inhibitory concentration (IC50) came to 67.6 µg/mL (≈ 181 µM). In the data set with M.tb Erdman, this molecule displayed a minimal inhibitory concentration (MIC) of 4 µg/mL (≈ 10.7 µM).
On to `Cl.Cn1nnc(-c2ccc(-c3ccc(N4C[C@H](CNC(=O)CCN)OC4=O)cc3F)cn2)n1` [AKG-17], for which, in the data set with M.tb H37Rv, the minimum inhibitory concentration (MIC) is 2 µg/mL. Moreover, in data set [1], the “Selectivity Index (SI) Erd/HepG2” value came to 18.7, the “Selectivity Index (SI) H37Rv/HepG2” value is on record as 18.7, the “Selectivity Index (SI) Erd/VERO” value is greater than 125 and the “Selectivity Index (SI) H37Rv/VERO” value is listed as greater than 125. In addition, the IC50 in data set [4] amounted to 37.3 µg/mL. In the data set on M.tb Erdman, this molecule returned an MIC of 2 µg/mL.
Regarding `Cl.Cn1nnc(-c2ccc(-c3ccc(N4C[C@H](CNC(=O)CCCN)OC4=O)cc3F)cn2)n1` [AKG-18], the MIC in the data set with M.tb H37Rv is 2 µg/mL. Also, in data set [3], the IC50 is greater than 250 µg/mL. Also, in data set [1], the “Selectivity Index (SI) Erd/HepG2” value turned out to be 4.8, the “Selectivity Index (SI) H37Rv/HepG2” value turned out to be 4.8, the “Selectivity Index (SI) Erd/VERO” value is greater than 125 and the “Selectivity Index (SI) H37Rv/VERO” value is listed as greater than 125. For the same molecule, in data set [4], the half-inhibitory concentration (IC50) stood at 9.5 µg/mL. In the data set with M.tb Erdman, this molecule gave a minimal inhibitory concentration (MIC) of 2 µg/mL.
Take `Cl.Cn1nnc(-c2ccc(-c3ccc(N4C[C@H](CNCCN)OC4=O)cc3F)cn2)n1` [AKG-19]: the minimal inhibitory concentration (MIC) in the data set on M.tb H37Rv is greater than 8 µg/mL. In addition, the IC50 in data set [3] is greater than 250 µg/mL. In data set [1], the “Selectivity Index (SI) Erd/HepG2” value is 5.3, the “Selectivity Index (SI) H37Rv/HepG2” value was 5.3, the “Selectivity Index (SI) Erd/VERO” value is greater than 31.3 and the “Selectivity Index (SI) H37Rv/VERO” value is listed as greater than 31.3. Moreover, the IC50 in data set [4] is 42.2 µg/mL. Also, the MIC against M.tb Erdman is greater than 8 µg/mL.
In the case of `Cl.NCCn1nnnc1-c1ccc(-c2ccc(N3C[C@H](CO)OC3=O)cc2F)cn1` [AKG-22], the “SI-MPS MPS/H37” value in data set [5] is 2.37.
Take `CCN(CC)CCCn1nnc(-c2ccc(-c3ccc(N4C[C@H](CN)OC4=O)cc3F)cn2)n1.Cl` [AKG-31]: the minimal inhibitory concentration (MIC) in the data set with M.tb H37Rv and in the data set on M.tb Erdman was 0.5 µg/mL throughout. Also, the IC50 in data set [3] was found to be 112 µg/mL; in data set [4], 13.2 µg/mL. Besides, in data set [1], the “Selectivity Index (SI) H37Rv/HepG2” value came out at 26.4. Besides, in data set [1], the “Selectivity Index (SI) H37Rv/VERO” value is on record as 223.0.
Turning to `CCN(CC)CCn1nnc(-c2ccc(-c3ccc(N4C[C@H](CNC(C)=O)OC4=O)cc3F)cn2)n1` [AKG-39], the MIC, M. tuberculosis (Example 2) in the data set on M.tb Erdman (strain not given) was 0.5 µg/mL (≈ 1.01 µM). The “SI-MPS MPS/H37” value in data set [5] came to 0.12.
Take `CCN(CC)CCCn1nnc(-c2ccc(-c3ccc(N4C[C@H](CNC(C)=O)OC4=O)cc3F)cn2)n1` [AKG-40]: the “SI-MPS MPS/H37” value in data set [5] was 0.13.
